According to paper PMC4552634, “A New Set of Chemical Starting Points with Plasmodium falciparum Transmission-Blocking Potential for Antimalarial Drug Discovery” (PLoS ONE, 2015):
Like-named read-outs stand apart in the source and are kept apart here.

How the values were obtained:
[1] = tested on: P. falciparum stage V gametocytes; assay: Gametocytocidal ATP bioluminescence assay (single point 5 μM and 1 μM, dose-response); assay type: cell-based, Plasmodium falciparum; settings: for Ratio IC50 HepG2/IC50 P. falciparum: IC50 HepG2 divided by IC50 P. falciparum gametocytes
[2] = tested on: luciferase reaction (BacTiter-Glo); assay: Interference assay (inhibition of the BacTiter-Glo luciferase reaction); assay type: biochemical; parameters: concentration or dose not given beside the values; settings: ATP interference assay
Experimental: To discard possible false-positive results, we performed an interference assay in parallel. […] […]. The ATP solution was made by dissolving ATP powder (ATP standard from the ATPlite 1 step assay kit, reference 6016731, Perkin Elmer) in culture medium. The positive control used was the Luciferase Inhibitor I Calbiochem (Merck, 119113) at 100 μM.

[3] = Cytotoxicity in HepG2 cells (intracellular ATP, ATPlite, 48 h); assay type: cell-based, human; settings: human, HepG2 cells
[4] = tested on: HepG2 cells; assay: as above; assay type: cell-based, human; settings: IC50 HepG2 divided by IC50 P. falciparum gametocytes
[5] = tested on: P. falciparum asexual stages; settings: TCAMS data, cited from earlier work
[6] = tested on: P. falciparum stage V gametocytes; assay: microbe, parasite or virus in culture; parameters: BacTiter-Glo ATP luminescence viability of purified stage V gametocytes in 384-well plates, per cent inhibition versus DMSO; settings: Plasmodium falciparum, 48 h, read-out: % Inhibition
[7] = Plasmodium falciparum, P. falciparum gametocytes, average, read-out: IC50 Pf Gametocytes average, IC50 (µM) average
[8] = HepG2, 48 h exposure, intracellular ATP, read-out: IC50 (μM) Cytotoxicity HepG2
[9] = IC50 per ratio column head, unit inferred, read-out: Cytotoxicity in HepG2
[10] = P. falciparum asexual stages, read-out: IC50 (µM) Pf asexual stages
[11] = asexual stages, read-out: IC50 asexual
[12] = Plasmodium falciparum, sexual stages (gametocytes), dose-response, read-out: IC50 sexual
[13] = sexual stages (gametocytes), dose-response, read-out: IC50 sexual

| % Control luminiscence [2] [%] | SMILES | Ratio IC50 HepG2/IC50 P. falciparum [1] | IC50 [1, 7] [µM] | IC50 at 48 h [3, 8] [µM] | IC50 at 48 h [3, 9] [µM] | Ratio IC50 HepG2/IC50 P. falciparum [4] | IC50 [5, 10] [µM] | IC50 [5, 11] [µM] | IC50 [1, 12] [µM] | IC50 [1, 13] [µM] | inhibition at 5 µM [6] [%] |
| --- | --- | --- | --- | --- | --- | --- | --- | --- | --- | --- | --- |
| 100 | FC(F)(F)c1ccc2[nH]c(-c3cccc(-c4ccc(CNCCN5CCNCC5)cc4)c3)nc2c1 [TCMDC-132872] | 15 | 0.86 | 13 | 12.6 | 15 | 0.86 | 0.862 |  |  |  |
| 100 | c1cc(CN2CCC(CCN3CCCCC3)CC2)cc(-c2cccc(-c3nc4ccccc4[nH]3)c2)c1 [TCMDC-133920] | 45 | 0.29 | 13 | 13.1 | 45 |  | 0.14 | 0.293 |  |  |
| 100 | Cc1n[nH]c2ccc(-c3ccc4nccc(N5CCC(N)CC5)c4c3)cc12 [TCMDC-134315] | 30 | 0.38 | 12 | 11.7 | 30 | 0.59 | 0.591 | 0.383 |  |  |
| 100 | COc1cccc(Nc2c(C(N)=O)cnc3ccc(-c4ccc([S+](C)[O-])cc4)cc23)c1 (stereo not drawn) [TCMDC-135184] | >18 | 1.43 |  | > 25 | >18 | 0.19 | 0.186 | 1.43 |  |  |
| 100 | COc1cc(NC(=O)c2sc(-c3ccc(Cl)cc3)cc2NC(=O)c2cccnc2)ccc1OCCN1CCCC1 [TCMDC-135397] | >41 | 0.61 |  | > 25 | >41 |  | 0.38 |  | 0.613 |  |
| 100 | Cc1ccc(-n2c(C)nc3c(Nc4ccc(-c5ccncc5)cc4)ncnc32)c(C)c1 [TCMDC-136289] | >47 | 0.53 |  | > 25 | >47 |  | 0.101 |  | 0.533 |  |
| 100 | CCn1ncc2c(NC3CCOCC3)c(CNC(=O)c3ccnn3C)c(C)nc21 [TCMDC-136560] | >15 | 1.64 |  | > 25 | >15 | 0.53 | 0.533 | 1.64 |  |  |
| 99 | COc1ccc(Nc2nccc(-c3ccc4ccnc(NCCCCN)c4c3)n2)cc1 [TCMDC-136642] | >77 | 0.33 |  | > 25 | >77 |  | 0.75 | 0.327 |  |  |
| 100 | CN(C)CCNC(=O)c1ccc(-c2cnc3ccc(NCc4ccc(Cl)c(Cl)c4)nn23)cc1 [TCMDC-136678] | 50 | 0.33 | 17 | 16.7 | 50 | 0.91 | 0.913 | 0.333 |  |  |
| 100 | Ic1cc(CNC2CCCCC2)ccc1OCc1cccc(COc2ccc(CNC3CCCCC3)cc2I)c1 [TCMDC-137261] | >75 | 0.33 |  | > 25 | >75 |  | 0.829 |  | 0.333 |  |
| 100 | C/C=C/C=C/C1=NCCc2cc(OCCC)ccc21 [TCMDC-137442] | 25 | 0.75 |  | 19 | 25 | 0.91 | 0.914 | 0.747 |  |  |
| 100 | COc1ccc2nc3cc(Cl)ccc3c(NCCN3CCN(C)CC3)c2c1 [TCMDC-137476] | 10 | 1.88 | 19 | 19.3 | 10 | 0.12 | 0.124 | 1.88 |  |  |
| 100 | CCCCN1CCN(CCCCNc2c3ccccc3nc3ccccc23)CC1 [TCMDC-137569] | 11 | 1.19 | 13 | 12.7 | 11 | 0.17 | 0.167 |  |  |  |
| 100 | COCCCNC(=S)NN=C(C)c1ccccn1 [TCMDC-137907] | 106 | 0.16 |  | 17 | 106 | 0.3 | 0.296 |  |  |  |
| 100 | c1ccc2c(NCCCCCCNc3ccnc4ccccc34)ccnc2c1 [TCMDC-137913] | 17 | 0.96 |  | 16.4 | 17 |  | 0.191 |  | 0.963 |  |
| 100 | COc1ccc2nc3cc(Cl)ccc3c(NCCCCNc3c4ccc(Cl)cc4nc4ccc(OC)cc34)c2c1 [TCMDC-138218] | 72 | 0.2 |  | 14.5 | 72 |  | 0.16 |  |  |  |
| 100 | COc1cc2nc(N3CCC(CCCC4CCNCC4)CC3)nc(NCc3ccccn3)c2cc1OC [TCMDC-138494] | 26 | 0.4 |  | 10.6 | 26 |  | 0.757 |  |  |  |
| 98 | COc1cc2nc(NCC3CCN(c4nc(N)c5cc(OC)c(OC)cc5n4)CC3)nc(N)c2cc1OC [TCMDC-138723] | >18 | 1.42 |  | > 25 | >18 |  | 0.776 |  |  |  |
| 100 | COc1ccc(COc2cc(NCCCN)nc3ccccc23)cc1 [TCMDC-139286] | 25 | 0.56 | 14 | 14 | 25 | 1.28 | 1.28 |  |  |  |
| 93 | c1cc(Nc2nc(-c3ccc(-c4csc(Nc5ccncc5)n4)cc3)cs2)ccn1 [TCMDC-139725] | 67 | 0.26 |  | 17.3 | 67 |  | 0.117 |  |  |  |
| 100 | CCCCCCCN1CC[C@@H](CCCc2ccnc3ccc(OCCCCNC(N)=NO)cc23)[C@@H](CC)C1 [TCMDC-139839] | 36 | 0.47 |  | 17.2 | 36 |  | 0.952 |  | 0.473 |  |
| 100 | CC(C)CNCc1cccc(-c2ccc(CN(CCCN3CCN(C)CC3)C(=O)CCC3CCCC3)cc2)c1 [TCMDC-140558] | >36 | 0.7 |  | > 25 | >36 |  | 0.877 |  |  |  |
| 100 | CCN(CC)CCN(Cc1ccc(-c2ccc(C(F)(F)F)cc2)cc1)C(=O)Cn1cc(Cc2cnn(C)c2)c(=O)nc1/C=C/c1cccc(F)c1F [TCMDC-140964] | 83 | 0.17 |  | 14.4 | 83 |  | 0.957 |  | 0.173 |  |
| 100 | CN(C)CCCNc1nccc(N(C)c2ccc(NC(=O)Nc3cc(C(F)(F)F)ccc3F)cc2)n1 [TCMDC-141633] | 17 | 1 |  | 17.3 | 17 |  | 0.98 |  | 0.997 |  |

| SMILES | % Control luminiscence [2] [%] | Ratio IC50 HepG2/IC50 P. falciparum [1] | IC50 [1, 7] [µM] | IC50 at 48 h [3, 8] [µM] | IC50 at 48 h [3, 9] [µM] | Ratio IC50 HepG2/IC50 P. falciparum [4] | IC50 [5, 10] [µM] | IC50 [5, 11] [µM] | IC50 [1, 12] [µM] | IC50 [1, 13] [µM] | inhibition at 5 µM [6] [%] |
| --- | --- | --- | --- | --- | --- | --- | --- | --- | --- | --- | --- |
| O=c1c(Br)ccccc1Br [TCMDC-142246] | 100 | 61 | 0.21 | 13 | 12.6 | 61 | 0.79 | 0.795 | 0.207 |  | 103 |
